Source: patent publication US12509431B2, “1,4-dihydroquinazolinone compounds and uses thereof” (Edgewise Therapeutics, Inc., priority 2022, dated 2025)

Key:
Type in all cases: biochemical
Details in all cases: Table 8
[1] = test system: Rabbit Skeletal myofibrils (rabbit psoas muscle); assay: Myofibril ATPase assay (PK/LDH NADH-coupled), skeletal myofibrils
How it was run: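 ATPase rate taken as linear-regression slope of A340 (NADH depletion through PK/LDH coupling) over a 75 min kinetic read, with psoas-derived rabbit skeletal myofibrils at pH 7.0. Four-parameter fits of vehicle-normalized activity give EC25 and, where reached, EC50.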

[2] = target: T1, Porcine Ventricle myofibrils (left ventricle of Yucatan minipigs) (Sus scrofa, UniProt P79293); assay: Myofibril ATPase assay (PK/LDH NADH-coupled), ventricle myofibrils
T1 construct: Myofibrils from porcine cardiac muscle was isolated from the left ventricle of Yucatan minipigs; tissue Exemplar Genetics; host or cells: left ventricle of Yucatan minipigs
T1 sequence (P79293 whole entry): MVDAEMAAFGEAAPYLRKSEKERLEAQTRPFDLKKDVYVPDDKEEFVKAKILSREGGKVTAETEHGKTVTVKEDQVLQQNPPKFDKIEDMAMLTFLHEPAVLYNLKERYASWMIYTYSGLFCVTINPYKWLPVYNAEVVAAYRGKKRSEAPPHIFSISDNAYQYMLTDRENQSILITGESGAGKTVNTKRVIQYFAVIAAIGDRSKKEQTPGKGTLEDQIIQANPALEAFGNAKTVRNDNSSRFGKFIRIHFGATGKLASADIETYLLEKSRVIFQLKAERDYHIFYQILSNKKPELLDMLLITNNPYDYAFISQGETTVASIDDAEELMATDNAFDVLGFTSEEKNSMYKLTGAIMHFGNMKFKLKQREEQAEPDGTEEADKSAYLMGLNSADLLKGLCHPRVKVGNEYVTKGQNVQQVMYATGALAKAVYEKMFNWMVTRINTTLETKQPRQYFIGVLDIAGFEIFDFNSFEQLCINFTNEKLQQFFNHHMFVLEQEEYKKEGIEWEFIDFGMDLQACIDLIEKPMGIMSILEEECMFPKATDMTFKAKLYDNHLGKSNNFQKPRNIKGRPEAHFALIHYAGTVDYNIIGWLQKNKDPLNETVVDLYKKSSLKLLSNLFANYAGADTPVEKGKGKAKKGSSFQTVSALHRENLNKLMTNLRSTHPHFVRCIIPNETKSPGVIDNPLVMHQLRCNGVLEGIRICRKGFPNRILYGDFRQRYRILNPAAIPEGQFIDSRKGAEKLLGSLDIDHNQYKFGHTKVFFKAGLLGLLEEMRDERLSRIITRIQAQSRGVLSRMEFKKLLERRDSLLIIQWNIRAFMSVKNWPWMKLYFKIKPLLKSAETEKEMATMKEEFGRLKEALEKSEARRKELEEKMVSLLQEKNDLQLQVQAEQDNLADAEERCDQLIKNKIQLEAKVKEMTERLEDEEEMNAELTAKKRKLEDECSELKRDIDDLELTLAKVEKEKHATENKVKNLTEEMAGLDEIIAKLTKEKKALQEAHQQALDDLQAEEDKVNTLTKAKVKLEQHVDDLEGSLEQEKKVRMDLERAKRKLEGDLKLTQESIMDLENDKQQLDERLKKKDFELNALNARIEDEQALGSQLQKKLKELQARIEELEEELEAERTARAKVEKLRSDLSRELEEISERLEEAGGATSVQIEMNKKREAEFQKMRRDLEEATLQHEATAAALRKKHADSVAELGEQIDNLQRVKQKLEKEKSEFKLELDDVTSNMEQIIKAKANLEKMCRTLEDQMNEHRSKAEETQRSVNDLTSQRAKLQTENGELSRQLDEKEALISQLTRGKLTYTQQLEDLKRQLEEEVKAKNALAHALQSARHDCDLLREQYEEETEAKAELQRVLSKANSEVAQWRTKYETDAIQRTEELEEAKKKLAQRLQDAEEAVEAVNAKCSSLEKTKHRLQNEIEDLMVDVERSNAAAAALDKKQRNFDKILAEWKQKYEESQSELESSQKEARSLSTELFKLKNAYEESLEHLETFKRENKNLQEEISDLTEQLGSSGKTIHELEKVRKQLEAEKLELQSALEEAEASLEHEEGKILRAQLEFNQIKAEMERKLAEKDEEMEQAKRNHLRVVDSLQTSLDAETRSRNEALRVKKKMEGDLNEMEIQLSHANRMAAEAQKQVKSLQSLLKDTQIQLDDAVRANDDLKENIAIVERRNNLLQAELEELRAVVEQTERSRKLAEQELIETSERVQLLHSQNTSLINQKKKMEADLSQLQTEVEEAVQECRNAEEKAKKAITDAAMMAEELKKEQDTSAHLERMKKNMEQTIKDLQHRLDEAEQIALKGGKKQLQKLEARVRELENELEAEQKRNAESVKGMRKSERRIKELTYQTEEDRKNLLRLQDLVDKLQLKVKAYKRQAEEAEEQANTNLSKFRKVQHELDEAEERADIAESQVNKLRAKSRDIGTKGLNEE
How it was run: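 NADH depletion (A340) coupled through pyruvate kinase/lactate dehydrogenase reports ATPase rate of porcine left-ventricle myofibrils over 75 min kinetic reads. Regression slopes, vehicle-normalized, fitted by 4-parameter logistic give EC25 and, where available, EC50.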

Porcine Atria myofibrils = assay: Myofibril ATPase assay (PK/LDH NADH-coupled), atria myofibrils
How it was run: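 Values are EC25% (and, for inhibitors, EC50%) from 4-parameter logistic fits of activity normalized to vehicle wells. Rates came from linear regression of 340 nm kinetic reads (every 1.5-2 min, 75 min) of NADH-coupled ATP turnover by porcine atria myofibrils.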

| SMILES | Rabbit Psoas IC25 [1] | Porcine Ventricle IC25 [2] | Porcine Atria IC25 (Porcine Atria myofibrils) |
| --- | --- | --- | --- |
| Cc1cc(C#N)ncc1[C@@H](C)NC(=O)CN1Cc2c(ccc(F)c2F)NC1=O [Compound B83] | 0.0214 µM | 0.0519 µM | 0.04 µM |
| C[C@@H](NC(=O)CN1Cc2c(ccc(F)c2F)NC1=O)c1nc(-c2ccc(F)cn2)no1 [Compound B85] | 4.582 µM | 28.59 µM | 0.39 µM |
| C[C@H](NC(=O)CN1Cc2c(ccc(F)c2F)NC1=O)c1nc(-c2ccc(F)cn2)no1 [Compound B86] | 100 µM | 100 µM | 100.00 µM |
| C[C@@H](NC(=O)CN1Cc2c(ccc(F)c2F)NC1=O)c1cnc(C#N)cn1 [Compound B91] | 0.3913 µM | 0.783 µM | 0.14 µM |
| C[C@H](NC(=O)CN1Cc2c(ccc(F)c2F)NC1=O)c1cnc(C#N)cn1 [Compound B92] | 0.01909 µM | 0.05126 µM | 0.03 µM |
| C[C@@H](NC(=O)CN1Cc2c(ccc(F)c2F)NC1=O)c1ccc(Cl)cn1 [Compound B93] | 11.45 µM | 5.574 µM | 1.26 µM |
| C[C@H](NC(=O)CN1Cc2c(ccc(F)c2F)NC1=O)c1ccc(Cl)cn1 [Compound B94] | 0.1294 µM | 0.5438 µM | 0.09 µM |
| C[C@@H](NC(=O)CN1Cc2c(ccc(F)c2F)NC1=O)c1nnc(-c2ccccc2F)s1 [Compound B95] | 100 µM | 100 µM | 1.56 µM |
| C[C@H](NC(=O)CN1Cc2c(ccc(F)c2F)NC1=O)c1nnc(-c2ccccc2F)s1 [Compound B96] | 21.88 µM | 100 µM | 1.91 µM |
| C[C@@H](NC(=O)CN1Cc2c(ccc(F)c2F)NC1=O)c1nnc2c(Cl)cc(C(F)(F)F)cn12 [Compound B97] | 8.892 µM | 4.796 µM | 1.43 µM |
| C[C@H](NC(=O)CN1Cc2c(ccc(F)c2F)NC1=O)c1nnc2c(Cl)cc(C(F)(F)F)cn12 [Compound B98] | 93.47 µM | 72.38 µM | 100.00 µM |
| C[C@@H](NC(=O)CN1Cc2c(ccc(F)c2F)NC1=O)c1ncc(C#N)cn1 [Compound B105] | 4.205 µM | 6.381 µM | 0.11 µM |
| C[C@H](NC(=O)CN1Cc2c(ccc(F)c2F)NC1=O)c1ncc(C#N)cn1 [Compound B106] | 0.3028 µM | 0.4765 µM | 0.09 µM |
| C[C@@H](NC(=O)CN1Cc2c(ccc(F)c2F)NC1=O)c1ccc(C(F)(F)F)cn1 [Compound B107] | 100 µM | 100 µM | 100.00 µM |
| C[C@H](NC(=O)CN1Cc2c(ccc(F)c2F)NC1=O)c1ccc(C(F)(F)F)cn1 [Compound B108] | 1.4 µM | 3.587 µM | 0.46 µM |
| C[C@@H](NC(=O)CN1Cc2c(ccc(F)c2C#N)NC1=O)c1ccc(C#N)cn1 [Compound B111] | 0.564 µM | 100 µM | 100.00 µM |
| C[C@H](NC(=O)CN1Cc2c(ccc(F)c2C#N)NC1=O)c1ccc(C#N)cn1 [Compound B112] | 0.079 µM | 2.318 µM | 1.51 µM |
| C[C@@H](NC(=O)CN1Cc2c(F)cccc2NC1=O)c1ccc(C#N)cc1F [Compound B113] | 0.09089 µM | 0.233 µM | 0.16 µM |
| C[C@H](NC(=O)CN1Cc2c(F)cccc2NC1=O)c1ccc(C#N)cc1F [Compound B114] | 0.0208 µM | 0.1673 µM | 0.12 µM |
| C[C@@H](NC(=O)CN1Cc2c(C#N)cccc2NC1=O)c1ccc(C#N)cn1 [Compound B115] | 100 µM | 100 µM | 100.00 µM |
| C[C@H](NC(=O)CN1Cc2c(C#N)cccc2NC1=O)c1ccc(C#N)cn1 [Compound B116, 2-(5-Cyano-2-oxo-1,4-dihydroquinazolin-3-yl)-N-[(1S)-1-(5-cyanopyridin-2-yl)ethyl]acetamide] | 0.0743 µM | 0.6721 µM | 0.22 µM |
| N#Cc1ccc2c(c1)C1(CC1)N(CC(=O)N[C@@H]1COc3cc(F)cc(F)c31)C(=O)N2 [Compound B121] | 0.0677 µM | 0.1665 µM | 0.12 µM |
| N#Cc1ccc2c(c1)C1(CC1)N(CC(=O)N[C@H]1COc3cc(F)cc(F)c31)C(=O)N2 [Compound B122] | 100 µM | 100 µM | 1.31 µM |
| C[C@@H](NC(=O)CN1Cc2c(C#N)cccc2NC1=O)c1ncc(C#N)cc1F [Compound B125] | 1.552 µM | 100 µM | 1.62 µM |
| C[C@H](NC(=O)CN1Cc2c(C#N)cccc2NC1=O)c1ncc(C#N)cc1F [Compound B126] | 0.04006 µM | 0.3461 µM | 0.07 µM |
| C[C@@H](NC(=O)CN1Cc2c(ccc(C#N)c2F)NC1=O)c1ccc(C#N)cc1F [Compound B129] | 3.992 µM | 100 µM | 0.26 µM |
| C[C@@H](NC(=O)CN1Cc2c(ccc(F)c2C#N)NC1=O)c1ncc(C#N)cc1F [Compound B131] | 0.3456 µM | 100 µM | 100.00 µM |
| C[C@H](NC(=O)CN1Cc2c(ccc(F)c2C#N)NC1=O)c1ncc(C#N)cc1F [Compound B132] | 0.0313 µM | 0.1715 µM | 0.08 µM |

The remaining lines, values ahead:

| Rabbit Psoas IC25 [1] | Porcine Ventricle IC25 [2] | Porcine Atria IC25 (Porcine Atria myofibrils) | SMILES |
| --- | --- | --- | --- |
| 100 µM | 2.339 µM | 0.46 µM | O=C(CN1Cc2c(ccc(F)c2F)NC1=O)N[C@H]1COc2ccc(F)cc2C1 [Compound B88] |
| 0.07847 µM | 0.2469 µM | 0.07 µM | N#Cc1cnc2c(c1)CC[C@H]2NC(=O)CN1Cc2c(ccc(F)c2F)NC1=O [Compound B89, N-[(7R)-3-Cyano-5H,6H,7H-cyclopenta[b]pyridin-7-yl]-2-(5,6-difluoro-2-oxo-1,4-dihydroquinazolin-3-yl)acetamide] |
| 100 µM | 100 µM | 10.98 µM | N#Cc1cnc2c(c1)CC[C@@H]2NC(=O)CN1Cc2c(ccc(F)c2F)NC1=O [Compound B90] |
| 100 µM | 100 µM | 0.70 µM | C[C@@H](NC(=O)CN1Cc2c(ccc(F)c2F)NC1=O)c1ccncc1F [Compound B99] |
| 0.1246 µM | 0.7409 µM | 0.03 µM | C[C@H](NC(=O)CN1Cc2c(ccc(F)c2F)NC1=O)c1ccncc1F [Compound B100] |
| 1.059 µM | 0.5759 µM | 0.15 µM | O=C(CN1Cc2c(ccc(F)c2F)NC1=O)N[C@@H]1COc2c(F)cc(F)cc2C1 [Compound B101] |
| 7.621 µM | 6.262 µM | 0.10 µM | O=C(CN1Cc2c(ccc(F)c2F)NC1=O)N[C@H]1COc2c(F)cc(F)cc2C1 [Compound B102] |
| 0.426 µM | 1.132 µM | 0.03 µM | C[C@@H](NC(=O)CN1Cc2c(ccc(F)c2F)NC1=O)c1c(F)cncc1F [Compound B103] |
| 100 µM | 100 µM | 2.79 µM | C[C@H](NC(=O)CN1Cc2c(ccc(F)c2F)NC1=O)c1c(F)cncc1F [Compound B104] |
| 13.9 µM | 100 µM | 12.19 µM | C[C@@H](NC(=O)CN1Cc2c(ccc(F)c2F)NC1=O)c1ncncc1F [Compound B109] |
| 0.0558 µM | 0.5595 µM | 0.04 µM | C[C@H](NC(=O)CN1Cc2c(ccc(F)c2F)NC1=O)c1ncncc1F [Compound B110] |
| 0.2366 µM | 1.967 µM | 0.15 µM | N#Cc1cc(F)c2c(c1)OC[C@H]2NC(=O)CN1Cc2c(ccc(F)c2C#N)NC1=O [Compound B117] |
| 0.0136 µM | 0.11 µM | 0.07 µM | N#Cc1cc(F)c2c(c1)OC[C@@H]2NC(=O)CN1Cc2c(ccc(F)c2C#N)NC1=O [Compound B118] |
| 0.3262 µM | 1.87 µM | 0.36 µM | N#Cc1cc(F)c2c(c1)OC[C@@H]2NC(=O)CN1Cc2c(ccc(F)c2F)NC1=O [Compound B124] |
